Reference: article PMC3173295, “Biochemical characterization of trans-sialidase TS1 variants from Trypanosoma congolense” (BMC Biochemistry, 2011)

Tests used:
Format in all cases: biochemical, Trypanosoma congolense
T. congolense TS1 e-1 [1] = tested on: T1, T. congolense TS1 e-1; assay: HPAEC-PAD quantification of […]'-sialyllactose, Michaelis-Menten fit; details: acceptor substrate; donor fetuin (600 μM bound Sia); pH 7.4-7.5, 37°C, 30 min; read-out: Acceptor substrates / Lactose / KM
T1 construct: residues 17-732 without signal peptide and GPI anchor region; C-terminal 3C site, SNAP and Strep tags; secreted from CHO Lec1 cells; 120 kDa with tags

T. congolense TS1b [2] = tested on: T2, T. congolense TS1b; assay: as above; details: acceptor substrate; donor fetuin (600 μM bound Sia); pH 7.4-7.5, 37°C, 30 min; read-out: Acceptor substrates / Lactose / KM
T2 construct: residues 17-732 without signal peptide and GPI anchor region; C-terminal 3C site, SNAP and Strep tags; secreted from CHO Lec1 cells; 120 kDa with tags

T. congolense TS1 e-1 [3] = tested on: T1, T. congolense TS1 e-1; assay: HPAEC-PAD quantification of […]'Sia-Gal-MU, Michaelis-Menten fit; details: acceptor substrate; donor 50 nmol 3'SL in 50 μL (Figure 7 legend; text b29 says fetuin, 600 μM bound Sia); 37°C, 30 min; read-out: Acceptor substrates / Gal-MU / KM
T. congolense TS1b [4] = tested on: T2, T. congolense TS1b; assay: as above; details: acceptor substrate; donor 50 nmol 3'SL in 50 μL (Figure 7 legend; text b29 says fetuin, 600 μM bound Sia); 37°C, 30 min; read-out: Acceptor substrates / Gal-MU / KM

Compound	Km (T. congolense TS1 e-1 [1])	Km (T. congolense TS1b [2])	Km (T. congolense TS1 e-1 [3])	Km (T. congolense TS1b [4])
OC[C@H]1O[C@@H](O[C@H]2[C@H](O)[C@@H](O)C(O)O[C@@H]2CO)[C@H](O)[C@@H](O)[C@H]1O (stereo partly shown) [lactose]	727 ± 48 µM	1680 ± 101 µM		
Cc1cc(=O)oc2cc(O[C@@H]3O[C@H](CO)[C@H](O)[C@H](O)[C@H]3O)ccc12 [Gal-MU, 4-methylumbelliferyl ß-D-galactoside]			74 ± 17 µM	57 ± 14 µM
